Data as given in article PMC13494539 (Cell Reports Methods, 2026).

Target: CRL4^CRBN-pomalidomide-SALL4 ZF1-ZF2 (aa 378–453) ternary complex (Homo sapiens, UniProt Q96SW2+Q9UJQ4)
Settings: presence vs absence of pomalidomide

Chain of CRL4^CRBN-pomalidomide-SALL4 ZF1-ZF2 (aa 378–453) ternary complex (Q9UJQ4 378-453 limits assumed): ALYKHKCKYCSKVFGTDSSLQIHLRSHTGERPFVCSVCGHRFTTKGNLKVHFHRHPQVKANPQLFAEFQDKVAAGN
Chain of CRL4^CRBN-pomalidomide-SALL4 ZF1-ZF2 (aa 378–453) ternary complex (Q96SW2 whole entry, the tested form may be a part): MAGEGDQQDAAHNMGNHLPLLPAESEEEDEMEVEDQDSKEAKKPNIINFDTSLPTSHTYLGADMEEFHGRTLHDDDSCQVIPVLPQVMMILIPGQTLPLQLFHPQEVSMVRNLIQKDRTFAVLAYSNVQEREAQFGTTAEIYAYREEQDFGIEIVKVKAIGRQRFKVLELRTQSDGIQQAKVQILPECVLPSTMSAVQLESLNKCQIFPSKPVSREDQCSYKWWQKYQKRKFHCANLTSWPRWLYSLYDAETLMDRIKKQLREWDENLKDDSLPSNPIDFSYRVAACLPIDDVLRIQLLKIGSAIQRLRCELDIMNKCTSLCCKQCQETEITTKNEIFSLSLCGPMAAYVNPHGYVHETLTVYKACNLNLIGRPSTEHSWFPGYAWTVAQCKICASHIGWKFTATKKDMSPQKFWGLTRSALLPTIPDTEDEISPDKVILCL
Chain of CRL4^CRBN-pomalidomide-SALL4 ZF1-ZF2 (aa 378–453) ternary complex (Q16531 whole entry partner, the tested form may be a part): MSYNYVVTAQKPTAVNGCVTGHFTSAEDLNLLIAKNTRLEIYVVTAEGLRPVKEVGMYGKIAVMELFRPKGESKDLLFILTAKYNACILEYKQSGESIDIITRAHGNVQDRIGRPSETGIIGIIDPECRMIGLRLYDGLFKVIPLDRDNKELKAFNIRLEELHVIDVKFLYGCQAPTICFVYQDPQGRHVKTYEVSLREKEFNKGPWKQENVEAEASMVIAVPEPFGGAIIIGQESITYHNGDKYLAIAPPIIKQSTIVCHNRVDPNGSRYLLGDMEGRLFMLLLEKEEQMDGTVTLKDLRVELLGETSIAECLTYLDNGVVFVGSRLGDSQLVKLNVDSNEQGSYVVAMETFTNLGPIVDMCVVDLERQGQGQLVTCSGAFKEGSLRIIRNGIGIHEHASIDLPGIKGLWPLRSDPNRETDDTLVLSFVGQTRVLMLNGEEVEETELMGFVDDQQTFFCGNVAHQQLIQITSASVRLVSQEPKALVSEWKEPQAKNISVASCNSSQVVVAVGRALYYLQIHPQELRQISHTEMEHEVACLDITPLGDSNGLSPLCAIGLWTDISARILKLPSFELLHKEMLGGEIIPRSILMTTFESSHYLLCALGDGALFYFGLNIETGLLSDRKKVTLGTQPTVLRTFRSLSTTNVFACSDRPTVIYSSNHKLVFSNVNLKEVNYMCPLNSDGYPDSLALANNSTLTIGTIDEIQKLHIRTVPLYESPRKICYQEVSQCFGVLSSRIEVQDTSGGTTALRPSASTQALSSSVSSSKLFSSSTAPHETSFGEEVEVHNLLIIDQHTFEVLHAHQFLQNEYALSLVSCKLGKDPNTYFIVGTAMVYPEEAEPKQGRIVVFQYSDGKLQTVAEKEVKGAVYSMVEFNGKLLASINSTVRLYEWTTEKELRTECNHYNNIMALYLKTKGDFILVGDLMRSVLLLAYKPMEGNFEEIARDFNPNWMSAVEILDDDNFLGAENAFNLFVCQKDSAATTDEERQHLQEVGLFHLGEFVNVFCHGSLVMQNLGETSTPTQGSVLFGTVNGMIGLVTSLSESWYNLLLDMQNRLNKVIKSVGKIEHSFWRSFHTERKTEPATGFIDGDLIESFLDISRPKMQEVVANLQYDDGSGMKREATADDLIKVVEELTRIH
Chain of CRL4^CRBN-pomalidomide-SALL4 ZF1-ZF2 (aa 378–453) ternary complex (Q13619 whole entry partner, the tested form may be a part): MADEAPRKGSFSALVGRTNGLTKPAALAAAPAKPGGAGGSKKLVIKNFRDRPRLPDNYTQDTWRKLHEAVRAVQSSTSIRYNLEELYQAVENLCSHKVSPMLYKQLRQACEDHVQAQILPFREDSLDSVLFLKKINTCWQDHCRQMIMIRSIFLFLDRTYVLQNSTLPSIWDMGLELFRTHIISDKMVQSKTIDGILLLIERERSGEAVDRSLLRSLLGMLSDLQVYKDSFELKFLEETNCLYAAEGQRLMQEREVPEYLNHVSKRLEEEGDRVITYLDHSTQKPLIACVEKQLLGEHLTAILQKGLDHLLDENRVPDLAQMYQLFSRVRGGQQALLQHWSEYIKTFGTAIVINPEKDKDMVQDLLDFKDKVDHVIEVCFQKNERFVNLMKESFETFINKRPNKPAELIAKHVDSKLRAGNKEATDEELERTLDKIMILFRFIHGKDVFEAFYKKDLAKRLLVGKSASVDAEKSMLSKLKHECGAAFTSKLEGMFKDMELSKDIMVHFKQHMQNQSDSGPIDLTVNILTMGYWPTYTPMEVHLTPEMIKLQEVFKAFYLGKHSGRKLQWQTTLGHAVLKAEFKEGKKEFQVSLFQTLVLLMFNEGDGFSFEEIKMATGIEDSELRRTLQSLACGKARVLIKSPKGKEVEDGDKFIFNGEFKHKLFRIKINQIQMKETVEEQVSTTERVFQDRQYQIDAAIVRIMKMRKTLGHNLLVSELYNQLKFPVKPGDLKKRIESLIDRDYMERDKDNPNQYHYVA
Chain of CRL4^CRBN-pomalidomide-SALL4 ZF1-ZF2 (aa 378–453) ternary complex (P62877 whole entry partner, the tested form may be a part): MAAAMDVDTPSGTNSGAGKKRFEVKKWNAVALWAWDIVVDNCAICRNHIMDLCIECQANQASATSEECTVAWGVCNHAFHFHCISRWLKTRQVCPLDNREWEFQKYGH
Chain of CRL4^CRBN-pomalidomide-SALL4 ZF1-ZF2 (aa 378–453) ternary complex (Q15843 1-76 partner limits assumed): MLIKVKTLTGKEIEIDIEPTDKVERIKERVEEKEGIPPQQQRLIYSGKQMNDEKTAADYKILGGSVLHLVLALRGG

With `Nc1cccc2c1C(=O)N(C1CCC(=O)NC1=O)C2=O` (stereo not shown) [Pomalidomide] the “enhancement of SALL4 recruitment by CRL4^CRBN in the presence of pomalidomide” value was “more than 10 fold”.
